Patent US4591586A, “6-fluoro-3-[3-(1-heterocyclo)propyl]-1,2-benzisoxazoles for treatment of pain, hypertension and psychoses” (Hoechst-Roussel Pharmaceuticals, priority 1984, dated 1986)
Counter-ions that a name gives are not always drawn. Like-named read-outs stand apart in the source and are kept apart here.

Legend:
[1] = tested on: spontaneous hypertensive rat; experiment: antihypertensive activity in the spontaneous hypertensive rat, indirect tail cuff method; type: in vivo; conditions: 50 mg/kg of body wt, oral, 3 days, measured on third day
Protocol: According to this procedure, the test compound is administered orally to a group of 5 rats for 3 days in relation to a control group of the same number. The decrease in blood pressure is measured on the third day of administration.

[2] = tested on: apomorphine-induced climbing; experiment: climbing mice assay (block of apomorphine-induced climbing), antipsychotic activity; type: in vivo, mice (CK-1 male); conditions: Mus musculus, ip; for ED50: read-out: Antipsychotic Activity ED50 value (estimated dose for 50% decrease in climbing scores)
[3] = tested on: phenyl-para-quinone induced writhing; experiment: phenyl-para-quinone writhing assay in mice (analgesia); type: in vivo; conditions: for ED50: Mus musculus, read-out: Analgesic Activity ED50 (dose at which 50% of the phenyl-para-quinone induced writhing is inhibited)
[4] = mice, 10 mg/kg of body wt, intraperitoneal, 30 minutes prior to apomorphine 1.5 mg/kg s.c., read-out: Antipsychotic Activity (% decrease in climbing score)
[5] = mice, intraperitoneal, 30 minutes prior to apomorphine 1.5 mg/kg s.c., linear regression
[6] = mice, at 20 mg/kg, subcutaneous

Cl.Fc1ccc2c(CCCN3CCC(Cc4ccccc4)CC3)noc2c1 [4-Benzyl-1-[3-(6-fluoro-1,2-benzisoxazol-3-yl)propyl]piperidine hydrochloride]
Blood Pressure Decrease (decrease in mean arterial blood pressure) [1]: 71 mm/mercury | inhibition in vivo at 10 mg/kg [2, 4]: 29%

CC(=O)C1(c2ccccc2)CCN(CCCc2noc3cc(F)ccc23)CC1.Cl [4-Acetyl-1-[3-(6-fluoro-1,2-benzisoxazol-3-yl)propyl]-4-phenylpiperidine hydrochloride]
percent decrease in writhing at a given dose ([3]; mouse, in vivo, sc, 20 mg/kg): 46%

Fc1ccc2c(CCCN3CCC(Oc4ccc(Cl)cc4)CC3)noc2c1 [4-(4-Chlorophenoxy)-1-[3-(6-fluoro-1,2-benzisoxazol-3-yl)propyl]-piperidinehydrochloride]
Blood Pressure Decrease (decrease in mean arterial blood pressure) [1]: 39 mm/mercury

Cl.Fc1ccc2c(CCCN3CCC(Sc4ccccc4)CC3)noc2c1 [1-[3-(6-Fluoro-1,2-benzisoxazol-3-yl)propyl]-4-phenylthiopiperidine hydrochloride]
ED50 ([3]; sc, mice, subcutaneous): 4.4 mg/kg | inhibition in vivo at 10 mg/kg [2, 4]: 27%

CSc1ccc2c(c1)N(CCC1CCCCN1C)c1ccccc1S2 (centres unmarked) [thioridazine, reference compound]
ED50 [2, 5]: 3.5 mg/kg

Cl.Fc1ccc2c(CCCN3CCC(CCCc4ccccc4)CC3)noc2c1 [1-[3-(6-Fluoro-1,2-benzisoxazol-3-yl)propyl]-4-(3-phenylpropyl)piperidine hydrochloride]
Blood Pressure Decrease (decrease in mean arterial blood pressure) [1]: 40 mm/mercury | inhibition in vivo at 10 mg/kg [2, 4]: 25%

Cl.O=C(c1ccc(F)cc1)C1CCN(CCCc2noc3cc(F)ccc23)CC1 [1-[3-(6-Fluoro-1,2-benzisoxazol-3-yl)propyl]-4-(4-fluorobenzoyl)piperidine hydrochloride]
ED50 ([3]; sc, mice, subcutaneous): 0.8 mg/kg | inhibition in vivo at 3 mg/kg ([2]; mice, 3 mg/kg of body wt, intraperitoneal, 30 minutes prior to apomorphine 1.5 mg/kg s.c., read-out: Antipsychotic Activity (% decrease in climbing score)): 91%

Fc1ccc2c(CCCN3CCCCCC3)noc2c1.O=C(O)C(=O)O [1-[3-(6-Fluoro-1,2-benzisoxazol-3-yl)propyl]-2,3,4,5,6,7-hexahydroazepine oxalate]
ED50 ([3]; sc, mice, subcutaneous): 1.3 mg/kg | inhibition in vivo at 10 mg/kg [2, 4]: 27%

Cl.Fc1ccc2c(CCCN3CCC4(CC3)OCCO4)noc2c1 [8-[3-(6-Fluoro-1,2-benzisoxazol-3-yl)propyl]-1,4-dioxa-8-azaspiro[4,5]decane hydrochloride]
ED50 ([3]; sc, mice, subcutaneous): 1.4 mg/kg | ED50 [2, 5]: 6.4 mg/kg

CCC(=O)O[C@](Cc1ccccc1)(c1ccccc1)[C@H](C)CN(C)C [propoxyphene, reference compound]
ED50 ([3]; sc): 3.9 mg/kg

O=C(NC1CCN(CCCc2noc3cc(F)ccc23)CC1)c1ccccc1 [4-Benzamido-1-[3-(6-fluoro-1,2-benzisoxazol-3-yl)propyl]-piperidine]
ED50 ([3]; sc, mice, subcutaneous): 0.6 mg/kg | Blood Pressure Decrease (decrease in mean arterial blood pressure) [1]: 44 mm/mercury | inhibition in vivo at 10 mg/kg [2, 4]: 49%

Cl.Fc1ccc2c(CCCN3CCC(Oc4ccc(Cl)c(Cl)c4)CC3)noc2c1 [1-[3-(6-Fluoro-1,2-benzisoxazol-3-yl)propyl]-4-(3,4-dichlorophenoxy)piperidine hydrochloride]
percent decrease in writhing at a given dose [3, 6]: 49%

CC(O)C1(c2ccccc2)CCN(CCCc2noc3cc(F)ccc23)CC1 (centres unmarked) [1-[3-(6-Fluoro-1,2-benzisoxazol-3-yl)propyl]-4-(1-hydroxyethyl)-4-phenylpiperidine hydrochloride]
inhibition in vivo at 10 mg/kg ([2]; read-out: Antipsychotic Activity (% decrease in climbing score)): 41%

Fc1ccc2c(CCCN3CCOCC3)noc2c1 [1-[3-(6-Fluoro-1,2-benzisoxazol-3-yl)propyl]morpholine oxalate]
ED50 ([3]; sc, mice, subcutaneous): 2.2 mg/kg

CC(C)=CCN1CCC2(C)c3cc(O)ccc3CC1C2C (centres unmarked) [pentazocine, reference compound]
ED50 ([3]; sc): 1.3 mg/kg

Fc1ccc2c(CCCNN3CCCCC3)noc2c1 [6-Fluoro-3-{3-[N-(1-piperidino)aminopropyl}-1,2-benzisoxazole oxalate]
ED50 ([3]; sc, mice, subcutaneous): 5 mg/kg | inhibition in vivo at 10 mg/kg [2, 4]: 36%

Fc1ccc2c(CCCN3CCCC3)noc2c1.O=C(O)C(=O)O [1-[3-(6-Fluoro-1,2-benzisoxazol-3-yl)propyl]pyrrolidine oxalate]
ED50 ([3]; sc, mice, subcutaneous): 1.2 mg/kg

N=C(N)NCCN1CCCCCCC1 [guanethidine, reference compound]
Blood Pressure Decrease (decrease in mean arterial blood pressure) [1]: 20 mm/mercury

OC1CCN(CCCc2noc3cc(F)ccc23)CC1 [1-[3-(6-Fluoro-1,2-benzisoxazol-3-yl)propyl]-4-hydroxypiperidine]
percent decrease in writhing at a given dose [3, 6]: 43% | ED50 [2, 5]: 10.4 mg/kg

O=C(CCCN1CCC(O)(c2ccc(Cl)cc2)CC1)c1ccc(F)cc1 [haloperidol, reference compound]
ED50 [2]: 0.11 mg/kg

CC1CCN(CCCc2noc3cc(F)ccc23)CC1.Cl [4-Methyl-1-[3-(6-fluoro-1,2-benzisoxazol-3-yl)propyl]piperidine hydrochloride]
Blood Pressure Decrease (decrease in mean arterial blood pressure) [1]: 59 mm/mercury | ED50 [2, 5]: 7.6 mg/kg

Cl.Fc1ccc2c(CCCN3CCC(Oc4ccc(C(F)(F)F)cc4)CC3)noc2c1 [1-[3-(6-Fluoro-1,2-benzisoxazol-3-yl)propyl]-4-(4-trifluoromethylphenoxy)piperidine hydrochloride]
Blood Pressure Decrease (decrease in mean arterial blood pressure) [1]: 35 mm/mercury

Cl.Fc1ccc2c(CCCN3CCC(c4ccccc4)CC3)noc2c1 [1-[3-(6-Fluoro-1,2-benzisoxazol-3-yl)propyl]-4-phenylpiperidine hydrochloride]
ED50 ([3]; sc, mice, subcutaneous): 1 mg/kg | inhibition in vivo at 10 mg/kg [2, 4]: 35%

Fc1ccc2c(CCCN3CCc4ccccc4C3)noc2c1 [2-[3-(6-Fluoro-1,2-benzisoxazol-3-yl)propyl]-1,2,3,4-tetrahydroisoquinolinehydrochloride]
percent decrease in writhing at a given dose [3, 6]: 69%

Cl.Fc1ccc2c(CCCN3CCCCC3)noc2c1 [1-[3-(6-Fluoro-1,2-benzisoxazol-3-yl)propyl]piperidine hydrochloride]
ED50 ([3]; sc, mice, subcutaneous): 0.6 mg/kg | Blood Pressure Decrease (decrease in mean arterial blood pressure) [1]: 30 mm/mercury
